The record followed here is US20200289611A1, “Methods and Compositions for the Inhibition of Quorum Sensing in Bacterial Infections” (priority 2016, published 2020).

The structures appear in SMILES notation. “Also recorded” adds a separate entry of the source. Like-named read-outs stand apart in the source and are kept apart here.

Experiment [1] concerns S. aureus LAC. The experiment in a line: Bacterial growth (OD) in reporter time course. Type of experiment: cell-based, Staphylococcus aureus. As to the method: (§1) Apicidin was tested for quorum quenching activity against all four agr types using P3-YFP reporter strains AH1677 (type I), AH430 (type II) AH1747 (type III), and AH1872 (type IV). (28) Overnight cultures of reporter strains that were grown in TSB supplemented with Cam were inoculated at a dilution of 1:250 into fresh TSB containing Cam. 100 μL, aliquots were added to 96-well microtiter plates containing 100 μL aliquots of TSB containing Cam and 2-fold serial dilutions of apicidin. Readings were recorded at 30 min increments using a Tecan Systems Infinite M200 plate reader.
Overnight cultures of agr strain types I, II, III, and IV were inoculated 1:500 into 5 ml of TSB (in 17×150 mm culture tubes) containing apicidin at concentrations of 100, 50, 25, 12.5, and 6.25 μg mL (28). All cultures were incubated at 37° C. with shaking (250 rpm), and growth was monitored by periodically transferring 100 μL of culture to a 96-well microtiter plate and reading OD600 in a Tecan Systems Infinite M200 plate reader. […] To quantify hemolytic activity, the filter sterilized culture supernatants from apicidin treated cultures were serially in TSB, and 50 μL aliquots were dispensed in quadruplicate into 96-well microtiter plates. […] Hemolysis was detected by the loss of turbidity as measured at OD630 using a Tecan Infinite M200 plate reader.

Experiment [2] relates to AIP signal biosynthesis (AgrB/AgrD). The experiment can be described thus: Mass spectrometric measurement of AIP production (agrBD in agr null LAC). The settings on record: apicidin treated vs vehicle cultures. It is filed as cell-based, Staphylococcus aureus. As to the method: (§2) To investigate the mechanisms by which apicidin inhibits quorum sensing, a series of in vitro assays were conducted to systematically assess the relative contribution of each of the core genetic elements of the agrBDCA operon (FIG. 13A). The membrane embedded peptidase AgrB, is responsible for processing the AgrD pro-peptide (immature AIP) for extracellular release. To determine if apicidin inhibits agr signaling at the level of AIP signal generation, an established system was used whereby the agrBD genes (under sarA P1 promoter regulation), were integrated into an agr null strain derived from the USA300 isolate LAC (40). This construct enables alterations to AIP signal biosynthesis to be clearly delineated from regulation stemming from signal integration. […] Next, the possibility that apicidin interferes with the sensory activity of AIP receptor AgrC was explored. For this, a R235H construct bearing a point mutation that confers constitutive AgrC activity, and thereby enables phospho-activation of AgrA to occur independently of AIP binding, was employed. […] Next, it was determined if AgrA serves as the target of apicidin. To this end, an agr null reporter construct, whereby agrP3 lux activation can only be achieved through the constitutive production of plasmid encoded AgrA […], was employed. […]

Experiment [3] has as its system agr systems of Staphylococcus epidermidis isolates of each agr-type. The experiment can be described thus: agr-P3 reporter strains of S. epidermidis. It is filed as cell-based.
In experiment [4] the target is T1, AgrA (Staphylococcus aureus, UniProt P0A0I7).
T1 construct: expressed in transfected cells; host or cells: agr null S. aureus agrP3-lux reporter strain
T1 sequence (P0A0I7 whole entry): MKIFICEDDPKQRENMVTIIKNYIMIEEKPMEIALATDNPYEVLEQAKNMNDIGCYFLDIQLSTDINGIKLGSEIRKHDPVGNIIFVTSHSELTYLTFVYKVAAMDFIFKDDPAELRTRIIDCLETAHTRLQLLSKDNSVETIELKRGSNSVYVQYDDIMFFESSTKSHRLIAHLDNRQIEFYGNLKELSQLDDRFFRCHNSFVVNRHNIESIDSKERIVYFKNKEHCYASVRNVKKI
The experiment can be described thus: agr null agrP3 lux reporter with plasmid encoded AgrA. It is filed as cell-based. The settings on record: agr null strain. On the procedure:
as §2

Experiment [5] concerns agr (P3-YFP reporter strains, agr types I-IV). The experiment can be described thus: agr P3-YFP reporter quorum quenching assay. It is filed as cell-based, Staphylococcus aureus. On the procedure: as §1
Experiment [6] concerns AgrC. The experiment can be described thus: Constitutive AgrC mutant (R235H) assays. Type of experiment: cell-based, Staphylococcus aureus. On the procedure: as §2
Experiment [7] relates to polymorphonuclear neutrophils (PMN) at MRSA infected skin. The experiment in a line: Flow cytometry of PMNs in infected skin. Type of experiment: in vivo, mice. As to the method:
For skin: abdominal skin ulcerations were excised and incubated in trypsin (0.6% in PBS) for 75 min at 37° C.; then cut into small pieces and incubated in Collagenase type II (0.5 mg/ml RPMI) for 90 min at 37° C. Skin cell suspensions were generated by serial passage of skin fragments through 18 and 20 gauge syringes. IN cell suspensions were generated mincing inguinal LNs with a razor blade before by serial passage of skin fragments through 18 and 20 gauge syringes. AU tissue preps were passed through a 70 am filter before immune cell staining. For whole blood: blood was collected, washed and resuspended in Tris-buffered ammonium chloride to lyse red blood cells.
For staining of skin, LN and whole blood preparations, the following antibodies: Anti-Ly6G (AI8), Anti-Ly6C (HK1.4), -CD11b (M1/70), CD45 (30-F11) were purchased from BioLegend. To block nonspecific binding, cells were incubated with rat anti-mouse CD16/32 FcγRIII/II (2.4G2) and vortexed prior to surface staining. In all experiments, LN or blood cells were collected on a FACS LSR using Cellquest software, and analyzed via FlowJo software. Dead cells were excluded by low forward-scatter and side-light scatter. Spectral overlaps between fluorochrome channels were corrected by automated compensation on singly stained, positive controls for each fluorochrome. In general, 50,000 cells were collected/tube. Flow cytometric analyses of agr-interference in bacterial cultures were conducted.

For `CCC(=O)CCCCC[C@@H]1NC(=O)[C@H]2CCCCN2C(=O)[C@H](C(C)CC)NC(=O)[C@H](Cc2cn(OC)c3ccccc23)NC1=O` (stereo partly shown) [apicidin], in experiment [1], the “growth inhibition / bactericidal effect” value was “non-bactericidal; also recorded: minimal growth inhibition”. For the same compound, in experiment [2], the “effect on AIP production” value was “does not target AIP signal biosynthesis; also recorded: does not alter the release of AIP signals”. For the same compound, the entries for the “quorum quenching in S. epidermidis” value in experiment [3] and in experiment [3] (listed as Apicidin) were “extend to multiple staphylococcal species” and “quorum sensing inhibition across S. epidermidis agr types”, respectively. For the same compound, the “inhibition of AgrA-dependent agr-P3 reporter activation” value in experiment [4] was “dose dependent inhibition of agr-P3 driven bioluminescence; also recorded: inhibited agr-P3 reporter activation”. In addition, the “agr inhibition relative to its analogues” value in experiment [5] is recorded as “showed the most impressive actions as an agr inhibitor”. Further, in experiment [5] (across S. aureus isolates), the “MICs for quorum sensing inhibition” value is given as “low micromolar”. In experiment [5] (agr P3 driven YFP expression, time course), the “agr-type dependence of quorum quenching potency” value is “types II and IV representing the most sensitive and resistant respectively”. In addition, in experiment [5] (agr types I-IV reporter strains), the “inhibition of quorum sensing (agr P3 reporter)” value is on record as “inhibited quorum sensing activity across S. aureus isolates; also recorded: inhibition extends to all 4 agr types; also recorded: inhibited the quorum sensing responses of multiple agr types”. The IC50 of agr-inhibition result in experiment [5] (all agr types) is “μM concentrations that were sub-inhibitory for growth”. The “quorum quenching in agr-P3 reporter strain with constitutive AgrC activity” value in experiment [6] was “maintenance of potent quorum quenching activity”. Also, the “inhibition of lytic activity, constitutive AgrC mutant” value in experiment [6] (RBC lysis, R235H strain) is listed as “dose dependent inhibition of lytic activity”. For the same compound, the “PMN density / accumulation at infected skin” value in experiment [7] (24 hours post infection) was “enhanced; also recorded: increased the density of PMNs within infected wounds; also recorded: augmenting their accumulation”. Also, the “frequency of PMN able to phagocytose MRSA” value in experiment [7] (DsRed+ MRSA) is on record as “Though not significantly, a trend showing increased frequency”. Moreover, the “number of PMNs that phagocytosed MRSA” value in experiment [7] (lesional skin preparations) is listed as “increased; also recorded: overall enhancement MRSA uptake within the entire network of cutaneous PMNs”. For the same compound, the “frequency of apoptotic PMNs” value in experiment [7] (lesional skin, one day after infection) is recorded as “decrease in the frequency of apoptotic PMNs”.
